Laboratory results taken from PubChem BioAssay AID1996.
Converted amounts (≈) assume the structure as drawn.

Conditions: buffer; pH 7.4; 200.0 µM

Row | SMILES | solubility kinetic [µg/mL]
1 | COc1ccc(CNC(=O)COC(=O)CCc2c[nH]c3ccccc23)cc1 | 44.4 (≈ 121 µM)
2 | COc1ccc(OC)c(NC2=NCCS2)c1 | > 35.7
3 | Cc1ccc(C(=O)NC(C)C2CCCO2)o1 (centres undefined) | > 33.5
4 | O=C(Cc1ccc([N+](=O)[O-])cc1)Nc1ccon1 | 18.3 (≈ 74 µM)
5 | CN(C)/C=C1\Oc2ccc3ccccc3c2C1=O | < 0.5
6 | CC(=O)n1c(-c2ccccc2)c(-c2ccccc2)n(C)c1=O | > 43.9
7 | O=C(CSc1nnc(C2CC2)n1C1CC1)c1ccccc1F | > 47.6
8 | c1csc(-c2nc(-c3ccc(-c4ccon4)s3)no2)c1 | 0.5 (≈ 1.66 µM)
9 | CCn1c(=O)c([N+](=O)[O-])c(NCCCn2ccnc2)c2ccccc21 | > 51.2
10 | O=C(NCc1ccc2c(c1)OCO2)c1sccc1Br | 48.4 (≈ 142 µM)
11 | O=C(CSc1ccc([N+](=O)[O-])cc1)NCC1CCCCC1 | 8.2 (≈ 26.6 µM)
12 | CCNC(=S)Nc1ccc(Cc2nc3ccccc3[nH]2)cc1 | 36 (≈ 116 µM)
13 | COc1ccc(OCC(=O)N(C)CC2COc3ccccc3O2)cc1 (centres undefined) | > 51.5
14 | COc1ccc(S(=O)(=O)N(C)CC(=O)NCCN2CCOCC2)cc1 | 51.5 (≈ 139 µM)
15 | O=C1C2C3CCC(O3)C2C(=O)N1c1cccc(O)c1 (centres undefined) | > 38.9
16 | Cc1nc(Nc2ccccc2)c2oc3ccc(Cl)cc3c2n1 | < 0.2
17 | Cc1cc(=O)n(CC(=O)O)c2ccccc12 | > 32.6
18 | COc1ccc(S(=O)(=O)n2c(C)nc3ccccc32)cc1C | 36.2 (≈ 114 µM)
19 | CCOc1cc2c(cc1/C=C/c1noc(C)c1[N+](=O)[O-])OC(C)C2 (centres undefined) | < 0.4
20 | O=C(NC(=S)Nc1ccccc1Br)C1CC1 | 41.7 (≈ 139 µM)

Row | SMILES | solubility kinetic [µg/mL]
21 | S=C(NCc1ccco1)Nc1ccc(Br)cn1 | 5 (≈ 16 µM)
22 | O=S(=O)(Nc1ccc(-c2cn3ccccc3n2)cc1)c1ccccc1 | 1.5 (≈ 4.29 µM)
23 | CC(C)C(=O)NS(=O)(=O)c1ccc(NS(C)(=O)=O)cc1 | > 48.1
24 | CC(=O)c1c(C)[nH]c(C(=O)OCCOc2ccccc2)c1C | 1.3 (≈ 4.31 µM)
25 | COc1ccc(CCNC(=O)C(C)SCC(=O)Nc2ccc(F)cc2)cc1 (centres undefined) | > 58.6
26 | Cc1ccc2c(c1)[nH]c1c(=O)n(Cc3ccco3)cnc12 | 0.5 (≈ 1.79 µM)
27 | CC(=O)N1CCN(c2ncnc3ccccc23)CC1 | > 38.4
28 | CCO/C(C)=C1/SC(=S)NC1=O | > 30.5
29 | COc1cccc(NC(=O)CN2C(=O)NC(Cc3c[nH]c4ccccc34)C2=O)c1 (centres undefined) | 22 (≈ 56.1 µM)
30 | Cl.O=[N+]([O-])c1ccc(N2CCCNCC2)c2ncccc12 | 36.7
31 | CCC(C(=O)NCCc1ccc(S(N)(=O)=O)cc1)c1ccccc1 (centres undefined) | > 52
32 | CCN(Cc1ccncc1)C(=O)c1ccc(C)o1 | > 36.6
33 | CCOC(=O)C(NC(=O)C1C(C)N1S(=O)(=O)c1ccc(C)cc1)C(=O)OCC (centres undefined) | > 61.9
34 | O=C(O)c1cncc(C#Cc2ccccc2)c1 | > 33.5
35 | COC(=O)C(Cc1ccc(O)cc1)NC(=O)CCNC(=O)c1ccco1 (centres undefined) | > 54.1
36 | Cc1ccc(NC(=O)COC(=O)CCC2CCCC2)cc1S(=O)(=O)N1CCOCC1 | 15.8 (≈ 36 µM)
37 | CCN(CC(=O)NC1CC1)S(=O)(=O)c1ccc(C)cc1 | > 44.5
38 | Cc1ccc(C)c(OC(=O)c2cccnc2)c1 | 16.9 (≈ 74.4 µM)
39 | CC(C)CN(C(=O)c1ccco1)c1nc2ccccc2s1 | 2.2 (≈ 7.32 µM)
40 | Cc1ccc(OCCNC(=O)c2ccc(C)o2)cc1 | > 38.9

Row | SMILES | solubility kinetic [µg/mL]
41 | O=C(COC(=O)C(CO)NS(=O)(=O)c1ccc(Br)cc1)Nc1ccc2c(c1)OCCO2 (centres undefined) | > 77.3
42 | O=C(Cc1cccc2ccccc12)Nc1c(F)cccc1F | 1.2 (≈ 4.04 µM)
43 | COC(=O)CCC(=O)N1CCCC(CO)(Cc2ccccc2F)C1 (centres undefined) | > 50.6
44 | CCOC(=O)CN1C(=O)S/C(=C\c2ccc3c(c2)OCO3)C1=O | 1.8 (≈ 5.37 µM)
45 | CCN1CCN(C(=O)NC2CCCCC2)CC1.O=C(O)C(=O)O | > 49.4
46 | O=C(COC(=O)c1ccncc1)Nc1cccc2ccccc12 | 40.3 (≈ 132 µM)
47 | O=C(COc1ccccc1)N1CCN(C(=O)c2ccccc2F)CC1 | > 51.4
48 | Nn1c(SCC(=O)Nc2ccc(N3CCOCC3)cc2)nnc1C1CC1 | > 56.2
49 | O=Cc1ccc2ccc3cccnc3c2n1 | > 31.2
50 | Cc1ccc(C)c(NC(=O)NCc2ccccn2)c1 | 35.4 (≈ 139 µM)
51 | O=C(O)CC1c2ccccc2CCN1S(=O)(=O)c1ccccc1 (centres undefined) | > 49.7
52 | O=C(CNC(=O)C1CCCCC1)OCC(=O)c1ccc(Br)cc1 | 27.6 (≈ 72.2 µM)
53 | COc1cc(C2/C(=C(\O)c3ccc4c(c3)OCCO4)C(=O)C(=O)N2Cc2ccco2)ccc1O (centres undefined) | 66.7 (≈ 144 µM)
54 | CCOc1ccc(S(=O)(=O)N(C)c2ccc(OCC(=O)NCC3CCCCC3)cc2)cc1 | 3.1 (≈ 6.73 µM)
55 | Cc1cc(C)c(S(=O)(=O)Nc2ncccc2C)c(C)c1 | 2.1 (≈ 7.23 µM)
56 | CCn1c(SCC#N)nc2ccccc2c1=O | > 36.8
57 | C=CCn1c(O)c(C(CC)=Nc2cccc(C(=O)O)c2)c(=O)[nH]c1=O | > 51.5
58 | O=c1c2ccccc2[nH]c2ccc(O)cc12 | > 31.7
59 | Cc1ccc(C)c(NC(=O)CN(C)C(=O)c2cccc(Oc3ccccc3)c2)c1 | 31.1 (≈ 80.1 µM)
